Reference: patent US20130039956A1, “USE OF NITROCARBOXYLIC ACIDS FOR THE TREATMENT, DIAGNOSIS AND PROPHYLAXIS OF AGGRESSIVE HEALING PATTERNS” (priority 2010, published 2013)

Experiments:
[1] = tested on: pericardial strips; test: Cold induced injury in a whole tissue ex-vivo model (pericardium); type: cell-based, Wistar rats; details: control sample incubated with all-caspase inhibitor before cold
Excerpt: To determine whether nitrated fatty acids can be used to preserve cells and tissues from cold or cryoinjury, an in vitro model utilizing murine epicardium was established. The experimental set-up should reduce the possibility of ischemia or reperfusion injury to a minimum, but at the same time allow differentiation of the contribution of ischemia/reperfusion injury-triggered cell death, which is known to occur almost exclusively via apoptosis, whereas cell death induced by cold injury almost exclusively results in necrosis.
The pericardial sac was carefully resected in 24 anesthetized Wistar rats (180-270 g) of either sex. Care was taken to grasp the pericardium with a forceps only at the cutting edges and reduce traumatization of the central portions of the pericardium to a minimum. After resection, the cutting edge and the former apex area of the pericardium were dissected, as to obtain flat tissue strips which were placed immediately in the culture medium (DMEM) containing 10% FCS and antibiotics (penicillin, streptomycin). Tissue samples were cultured in an oxygen atmosphere at 18° C. for 2 days. […] Then the pericardial strips were cut into 4 pieces of equal size. One piece was further cultivated at 37° C. without undergoing the cooling cycles, thus, serving as the control. In each of three investigations, one piece was bathed in a solution (0.9% saline and 1% SDS) containing 200 μmol nitro-fatty acid or contained 200 μmol of the corresponding native fatty acid, for 10 min at a temperature of 18° C. One piece of pericardium was bathed in a solution without fatty acids under otherwise identical conditions. All samples were cooled by continuously decreasing from ambient temperature at a rate of 3° C./min to a minimum temperature of […]. After 1 hour, the samples were rewarmed at a rate of 3° C./min by continuously increasing the temperature until a temperature of 18° C., was achieved. Thereafter an identical cooling and rewarming cycle was performed. After the second cooling cycle, the tissue pieces were further cultured in the culture medium for 1 day allowing continuous adaptation to an ambient temperature of 37° C. For analytical preparations the pericardial pieces were out and further processed. A direct TUNEL assay (Roche) was use for quantification of apoptosis, an annexin V/propidium iodide exclusion assay (Roche) was used to quantify the number of necrotic cells, and viability was determined by the WST-8 assay. Furthermore, the LDH release was quantified in the supernatants.
To rule out that cell death has been induced by ischemia or reperfusion (reoxygenation), in one series of experiments, a control sample was incubated with an all-caspase inhibitor (Q-VD-OPH, BioVision, USA) reconstituted in DMSO before the sample was exposed to cold.

[2] = target: T1, TRPV-1 (Mus musculus, UniProt Q704Y3); test: Signal transduction of receptors of the TRP-protein family in retinal slices; type: cell-based, mice; details: preincubation (5 minutes) of TRPV-1 antagonist, saline specimens
T1 construct: Whole retinas were isolated and cut into 100 μm slices using a tissue slicer; from tissue; host or cells: mouse retinal slices (100 μm)
Description: In order to determine the effect of nitrated fatty acids on receptor signal transduction, an in vitro model was used. Retinal slices from cadaver mice were prepared as described by Snellman and Nawy (Snellman J. Nawy S (2004). cGMP-dependent kinase regulates response sensitivity of the mouse on bipolar cell. J Neurosci 24:6621-6628). Whole retinas were isolated and cut into 100 μm slices using a tissue slicer and than transferred to the recording chamber. The chamber was continuously perfused with Ames media and oxygenated. Picrotoxin (100 μM), strychnine (10 μM), and TPMPA (50 μM) were added. Each nitro fatty acid was added in two experiments to achieve a final concentration of 10 μmol, and in another two experiments to achieve a final concentration of 50 μmol. In two experiments, the corresponding native fatty acid was added to achieve a final concentration of 10 and 50 μmol, and in two experiments saline solution was added which served as controls. Currents were measured via tissue electrodes and monitored throughout the investigation. After incubating the solution for 2 hours, the TRPV-1 agonist capsaicin was added to achieve a final concentration of 10 μmol. Experiments were performed using either 10 mmol Hepes or 10 mmol Mes adjusting the pH of the solution to 6.4 or 4.4, respectively. Furthermore, experiments were performed without or with preincubation (5 minutes) of the TRPV-1 antagonist capsazepine. The solution temperature was held constant at 35° C.

T1 sequence (Q704Y3 whole entry): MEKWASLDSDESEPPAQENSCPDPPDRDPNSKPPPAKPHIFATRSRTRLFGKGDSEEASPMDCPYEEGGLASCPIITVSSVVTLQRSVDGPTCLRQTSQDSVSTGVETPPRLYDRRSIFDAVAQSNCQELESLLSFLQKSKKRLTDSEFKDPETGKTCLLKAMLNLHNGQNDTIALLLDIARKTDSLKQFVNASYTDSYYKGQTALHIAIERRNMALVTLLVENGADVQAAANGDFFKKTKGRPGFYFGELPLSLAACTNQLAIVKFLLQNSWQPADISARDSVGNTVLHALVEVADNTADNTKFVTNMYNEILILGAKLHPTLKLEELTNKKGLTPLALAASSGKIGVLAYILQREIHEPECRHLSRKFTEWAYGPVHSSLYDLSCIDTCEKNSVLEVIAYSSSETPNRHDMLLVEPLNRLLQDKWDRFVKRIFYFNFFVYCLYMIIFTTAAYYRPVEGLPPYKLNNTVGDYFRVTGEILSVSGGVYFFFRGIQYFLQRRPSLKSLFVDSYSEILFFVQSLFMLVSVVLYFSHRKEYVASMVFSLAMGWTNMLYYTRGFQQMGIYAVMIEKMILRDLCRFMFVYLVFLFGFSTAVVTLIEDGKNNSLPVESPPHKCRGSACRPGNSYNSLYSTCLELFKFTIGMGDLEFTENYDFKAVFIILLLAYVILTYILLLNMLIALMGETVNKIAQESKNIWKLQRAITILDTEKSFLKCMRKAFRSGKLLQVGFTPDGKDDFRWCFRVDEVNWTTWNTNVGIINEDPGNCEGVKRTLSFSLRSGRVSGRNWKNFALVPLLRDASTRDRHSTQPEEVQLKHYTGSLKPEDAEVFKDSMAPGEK

capsaicin effect (induced current) [2]	SMILES	rate of cells undergoing apoptosis [1]
	CC(C)[C@H](NC(=O)c1ccc2ccccc2n1)C(=O)N[C@@H](CC(=O)O)C(=O)COc1c(F)cccc1F [Q-VD-OPH, reference compound]	within the range found in the cold-exposed control samples
inhibited	Oc1cc2c(cc1O)CN(C(=S)NCCc1ccc(Cl)cc1)CCC2 [capsazepine, reference compound]	
